This is an account of results in patent US20260034125A1, “N-PHENYL-1-(PHENYLSULFONYL)PIPERIDIN-4-AMINE DERIVATIVES AS CCR6 INHIBITORS” (priority 2023, published 2026).

What all share (type): cell-based
For assay [1], the target named is T1, human CCR6 (Homo sapiens, UniProt P51684).
T1 sequence (P51684 1-374): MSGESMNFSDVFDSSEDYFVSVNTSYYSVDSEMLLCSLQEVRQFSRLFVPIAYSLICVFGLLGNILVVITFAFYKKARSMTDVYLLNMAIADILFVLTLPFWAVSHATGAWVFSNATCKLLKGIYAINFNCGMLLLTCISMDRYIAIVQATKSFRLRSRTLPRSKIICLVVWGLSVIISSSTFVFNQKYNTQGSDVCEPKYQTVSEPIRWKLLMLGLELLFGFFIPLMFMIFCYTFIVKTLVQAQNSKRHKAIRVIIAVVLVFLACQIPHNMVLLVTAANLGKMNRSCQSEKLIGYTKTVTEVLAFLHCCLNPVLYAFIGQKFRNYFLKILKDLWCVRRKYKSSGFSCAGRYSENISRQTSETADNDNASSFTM
Briefly: CHO-K1 CCR6 chemotaxis assay towards CCL20. The conditions noted are these: relative -LogIC50; CHO-K1 cells overexpressing human CCR6, 100 ng/ml CCL20, Transwell, 4 h. An excerpt:
Cells overexpressing human CCR6 were used in the chemotaxis assay (DiscoverX, CAMP Hunter™ CHO-K1 CCR6 Gi Cell Line). Growth medium of these cells consisted of DMEM/F12, non-essential Amino acids (1×NEAA, Gibco 11140050), 10% FBS and 1× pen/strep (Gibco 15140). For the chemotaxis assay, Corning Transwell plates were used with a pore size of 8 μm (Corning 351164). Cells were harvested using trypsin and diluted to 4*10^6 cells/ml in chemotaxis medium (DMEM, 0.25% BSA, pen/strep). Compounds were four-fold serially diluted in DMSO. Further dilutions were made in chemotaxis medium. Cells were incubated with test compounds for 30 min at 37° C. prior to initiation of the assay (2*10^6 cells/ml). Final DMSO concentration in the assay was 0.2%. Wells of the Transwell plates were filled with 200 μl chemotaxis medium containing 100 ng/ml CCL20 (R&D systems 360-MP). 50 μl of the cell/compound suspension was added to the inserts of the Transwell plates (100,000 cells/insert). The Transwell plates were placed in an incubator at 37° C., 5% CO2 for 4 h. After 4 h, the number of migrated cells was quantified using CellTiter Glo (Promega). Percentage inhibition values were calculated based on the low and high signal obtained with 0.2% DMSO in chemotaxis medium without and with CCL20, respectively. The relative-LogIC50 was determined with GraphPad Prism 9 using a four-parameter dose-response model.

Assay [2] concerns the target T1, human CCR6. The experiment in a line: Human CCR6-Cre reporter assay. Details: The second construct contained the open reading frame of human CCR6 in the pUNO1 backbone; host or cells: 293 FT cells. The settings on record: relative -LogIC50; transfected 293 FT cells, 6 μM Forskolin, 6 nM CCL20, luciferase readout, 5h. How it is done: 293 FT cells were transfected with 2 constructs using TransIT-293 (Mirus). The first construct (pGL4.29, Promega) expressed the luciferase reporter gene luc2P in response to the binding of cAMP-induced CREB to the CRE element in its promoter. The second construct contained the open reading frame of human CCR6 in the pUNO1 backbone under the control of an enhanced CMV promoter (In VivoGen). 48h after transfection, cells were harvested and diluted to 750,000 cells/ml in culture medium (DMEM, 10% FBS, 1× pen/strep (Gibco 15140)). Compounds were 2.5-fold serially diluted in DMSO. Further dilutions were made in assay medium (DMEM, 10% FBS, 1× pen/strep, 6 μM Forskolin, 6 nM CCL20). 4 μl of the compound solution was added to a white MW384 plate, followed by 20 μl of the cell suspension. Final DMSO concentration in the assay was 0.1%. The MW384 plate was placed in an incubator at 37° C., 5% CO2 for 5h. Luciferase activity was determined by addition of 24 μl of a 2.5× diluted BriteLite luciferase solution (Perkin Elmer), followed by luminescence measurement using a VICTOR Plate reader (Perkin Elmer). […] The relative-LogIC50 was determined with GraphPad Prism 9 using a four-parameter dose-response model.
In general terms: Reporter assays use an easily measured gene product as a stand-in for the process of interest.

A further assay relates to Human CD4+ T cells. Briefly: CD4+ T cell chemotaxis assay towards CCL20. The settings on record: relative -LogIC50, 150 ng/ml CCL20, Transwell, 3 h. An excerpt: Human CD4+ T cells were isolated from buffy coats of healthy donors using a CD4+ T Cell Isolation Kit (Miltenyi Biotec130-096-533). Isolated T cells were stimulated overnight with anti-CD3 and anti-CD28 antibodies (Biolegend 300314/302934) in growth medium (RPMI1640, 10% heat-inactivated FBS, 1× pen/strep (Gibco 15140)). For the chemotaxis assay, Corning Transwell plates were used with a pore size of 5 μm (Corning 3388). T cells were counted and diluted to 6*10^6 cells/ml in chemotaxis medium (RPMI1640, 1% BSA, pen/strep). Compounds were four-fold serially diluted in DMSO. Further dilutions were made in chemotaxis medium. Cells were incubated with test compounds for 30 min at 37° C. prior to initiation of the assay (3*10^6 cells/ml). Final DMSO concentration in the assay was 0.2%. Wells of the Transwell plates were filled with 200 μl chemotaxis medium containing 150 ng/ml CCL20 (R&D systems 360-MP). 50 μl of the cell/compound suspension was added to the inserts of the Transwell plates (150,000 cells/insert). The Transwell plates were placed in an incubator at 37° C., 5% CO2 for 3 h. After 3 h, the number of migrated cells was quantified using CellTiter Glo (Promega). Percentage inhibition values were calculated based on the low and high signal obtained with 0.2% DMSO in chemotaxis medium without and with CCL20, respectively. The relative −LogIC50 was determined with GraphPad Prism 9 using a four-parameter dose-response model.

`CNC(=O)c1ccc(-c2ccc(S(=O)(=O)N3CCC(Nc4ccc(C5(C(F)(F)F)CC5)cc4)CC3)cc2)cn1` [Example 6, N-methyl-5-(4-{[4-({4-[1-(trifluoromethyl)cyclopropyl]phenyl}Amino)piperidin-1-yl]sulfonyl}phenyl)pyridine-2-carboxamide]: the IC50 on human CCR6 [1] and against human CCR6 [2] was 126 nM throughout.
On to `NC(=O)c1ccc(-c2ccc(S(=O)(=O)N3CCC(Nc4ccc(C5(C(F)(F)F)CC5)cc4)CC3)cc2)cc1` [Example 7, 4′-{[4-({4-[1-(trifluoromethyl)cyclopropyl]phenyl}Amino)piperidin-1-yl]sulfonyl}-[1,1′-biphenyl]-4-carboxamide], for which the IC50 against human CCR6 [1] is 126 nM; at human CCR6 [2], 200 nM.
On the same counts, the results for `N#Cc1c[nH]c2ccc(-c3ccc(S(=O)(=O)N4CCC(Nc5ccc(C6CC6)cc5)CC4)cc3)cc12` [Example 12, 5-[4-({4-[(4-cyclopropylphenyl)Amino]piperidin-1-yl}sulfonyl)phenyl]-1H-indole-3-carbonitrile] are 251 nM and 251 nM.
On the same counts, the results for `N#Cc1c[nH]c2ccc(-c3ccc(S(=O)(=O)[C@H]4CC[C@H](Nc5ccc(C6(C(F)(F)F)CC6)cc5)CC4)cc3)cc12` [Example 16, 5-(4-{[trans-4-({4-[1-(trifluoromethyl)cyclopropyl]phenyl}Amino)cyclohexyl]sulfonyl}phenyl)-1H-indole-3-carbonitrile] are 5.01 nM and 20 nM.
`O=S(=O)(c1ccc(-c2ccc3nccn3c2)cc1)[C@H]1CC[C@H](Nc2ccc(C3(C(F)(F)F)CC3)cc2)CC1` [Example 17, N-[trans-4-(4-{imidazo[1,2-a]pyridin-6-yl}benzenesulfonyl)cyclohexyl]-4-[1-(trifluoromethyl)cyclopropyl]aniline]: the half-inhibitory concentration (IC50) was 39.8 nM on human CCR6 [1] and 100 nM at human CCR6 [2].
For `N#Cc1c[nH]c2ccc(-c3ccc(S(=O)(=O)[C@H]4CC[C@H](Nc5ccc(C6COC6)cc5)CC4)cc3)cc12` [Example 19, 5-(4-{[trans-4-{[4-(oxetan-3-yl)phenyl]Amino}cyclohexyl]sulfonyl}phenyl)-1H-indole-3-carbonitrile], the half-inhibitory concentration (IC50) against human CCR6 [1] is 251 nM; against human CCR6 [2], 63.1 nM.
With `CC(C)c1cnc2ccc(-c3ccc(S(=O)(=O)[C@H]4CC[C@H](Nc5ccc(C6(C(F)(F)F)CC6)cc5)CC4)cc3)cn12` [Example 20, N-[trans-4-{4-[3-(propan-2-yl)imidazo[1,2-a]pyridin-6-yl]benzenesulfonyl}cyclohexyl]-4-[1-(trifluoromethyl)cyclopropyl]aniline], the IC50 is 3.98 nM at human CCR6 [1] and 100 nM on human CCR6 [2].
As for `CC(C)c1nnc2ccc(-c3ccc(S(=O)(=O)N4CCC(Nc5ccc(C6(C(F)(F)F)CC6)cc5)CC4)cc3)cn12` [Example 40, 1-{4-[3-(propan-2-yl)-[1,2,4]triazolo[4,3-a]pyridin-6-yl]benzenesulfonyl}-N-{4-[1-(trifluoromethyl)cyclopropyl]phenyl}piperidin-4-amine], the IC50 against human CCR6 [1] was 15.8 nM; at human CCR6 [2], 50.1 nM; with Human CD4+ T cells it was 0.631 nM.
On to `O=S(=O)(c1ccc(-c2ccc3nnc(C(F)F)n3c2)cc1)N1CCC(Nc2ccc(C3(C(F)(F)F)CC3)cn2)CC1` [Example 44, N-(1-{4-[3-(difluoromethyl)-[1,2,4]triazolo[4,3-a]pyridin-6-yl]benzenesulfonyl}piperidin-4-yl)-5-[1-(trifluoromethyl)cyclopropyl]pyridin-2-amine], for which the results for the IC50 on human CCR6 [1], against human CCR6 [2] and with Human CD4+ T cells were 6.31 nM, 50.1 nM and 6.31 nM, respectively.
Regarding `NC(=O)c1cc(-c2ccc(S(=O)(=O)N3CCC(Nc4ccc(C5(C(F)(F)F)CC5)cn4)CC3)cc2)ccn1` [Example 45, 4-(4-{[4-({5-[1-(trifluoromethyl)cyclopropyl]pyridin-2-yl}amino)piperidin-1-yl]sulfonyl}phenyl)pyridine-2-carboxamide], the results for the IC50 against human CCR6 [1], at human CCR6 [2] and in the assay with Human CD4+ T cells were 20 nM, 31.6 nM and 7.94 nM, respectively.
As to `Cc1cc(-c2ccc(S(=O)(=O)N3CCC(Nc4ccc(C5(C(F)(F)F)CC5)cn4)CC3)cc2)cn2c(C(C)C)nnc12` [Example 46, N-(1-{4-[8-methyl-3-(propan-2-yl)-[1,2,4]triazolo[4,3-a]pyridin-6-yl]benzenesulfonyl}piperidin-4-yl)-5-[1-(trifluoromethyl)cyclopropyl]pyridin-2-amine], the values for the IC50 against human CCR6 [1], against human CCR6 [2] and in the assay on Human CD4+ T cells were 15.8 nM, 63.1 nM and 2 nM, respectively.

The IC50 is the concentration needed to halve the response being measured.
